Entries after “also recorded” stand apart in the source; their conditions may differ. Bridges are numbered along the chain shown (N, C = ends). Roman numbers before positions name the chains, in order. Where no end group is shown, it is not given here.
What was measured:
human T cells (HDMAR) = test: Binding to HDMAR human T cell line (detected by anti-C24D IgG); format: cell-based
[1] = system: C48 receptor on human T cells; test: Inhibition of C48 binding to HDMAR human T cells (detected by anti-C48 IgG-FITC); format: cell-based; conditions: pre-incubation of HDMAR T cells with different concentrations
[2] = system: human PBMC activated with OKT3 MoAb; test: Cell stimulation and cytokine production (ELISA of supernatants); format: cell-based; conditions: for Level of INF-γ: vs control cultures; for Level of IL-10: vs control cells
Description: Peripheral blood mononuclear cells (PBMC) at 2×10^6 in 1 ml of 5% human serum/RPMI-1640 were cultured in a 10 ml round-bottom tube, treated with C48 (2 μg/ml), C24D (10 μg/ml), or non-treated. Subsequently, these cultures were stimulated with OKT3 MoAb (100 ng/ml) or non-stimulated. Supernatants were collected at 24, and 72 hours for analysis of IL-10 and other cytokines as indicated in each experiment.
The ELISA kits for the human cytokines TNF-α, IL-10 and IFN-γ were purchased from DPC, and R&D Systems, USA. These kits were used to quantify the indicated cytokines production in the supernatants, according to the manufacturer's instructions.
(§1) Buffy coats from blood bank donors were layered onto Lymphoprep solution (Nycomed, Oslo, Norway) and spun at 2000 rpm for 20 minutes. The interface layer was collected, washed twice, counted, and resuspended in PBS; pH 7.4 to the desired cell concentration.

[3] = system: MCF-7 human breast cancer cells; test: MCF-7 and PBMC co-culture in vitro; format: cell-based
Description: The MCF-7 human breast carcinoma cell line was maintained in monolayer cultures in RPMI-1640 medium supplemented with 10% fetal calf serum. For passages, confluent monolayer cultures were trypsinized with trypsin/EDTA solution (0.25%/0.05%, respectively), washed once, and seeded in culture medium.
as §1
MCF-7 was maintained in RPMI+fetal calf serum (FCS) 10%. 1 day before the experimental start, the medium was replaced with RPMI+human AB serum 10%. PBMC (1×10^6) were added to MCF-7 (0.1×10^6) at a final volume of 1 ml dispensed into 24-well plates. The cells were treated with C24D 30 μg/ml at 0, 24 and 48 hours. The cells without treatment were used as a control. Plates were washed, fixed for 1 hour with 4% formaldehyde solution and stained with Giemsa for microscopic evaluation on experimental days 1, 5, and 8.
PBMC were removed from the following cell cultures: a) non-treated control MCF-7+PBMC, b) control (only PBMC cultured with C24D), and c) C24D-treated MCF-7+PBMC. All were transferred to new untreated MCF-7 cell monolayer cultures.

[4] = system: MCF-7 human breast cancer cells; test: MCF-7 tumor development in nude mice transfused with human PBMC; format: in vivo, Athymic BALB/c nude mice
Description: Athymic BALB/c nude mice were purchased from Harlan Laboratories Ltd. Mice were inoculated subcutaneously (s.c.) with MCF-7 human breast cancer cells (6×10^6), in the presence of an estrogen source (0.72 mg). The slow-release pellets (60-day release) were implanted s.c. into the cervical scapular space.
as §1, with “PBS (pH 7.4)” for “PBS; pH 7.4”, “concentration. Human PBMC (50×10^6/0.5 ml) were injected intravenously after transplantation of MCF-7 tumor cells as described above.” for “concentration.”
In each experiment, mice were divided into groups of five. C24D dissolved in PBS pH 7.2 was injected i.p. to each mouse daily, at an optimal dose of 60 μg/0.2 ml. Control mice received daily injections of PBS.
Tumors were excised, measured, and fixed in phosphate-buffer formalin (pH 7.0) from which paraffin embedded blocks were prepared.
Four-micron tissue sections were cut from paraffin-embedded blocks and mounted on coated super frost plus slides. They were deparaffinized in xylene, and rehydrated with graded alcohols, rinsed in H2O, and then incubated in 3% H2O2 for 10 minutes and washed in H2O.
For antigen unmasking, the sections were heated in 10 mM of sodium citrate buffer (pH 6.0) for 10 minutes in microwaves or pressure chambers, depending on the manufacturer's instructions, and then cooled at room temperature for 20 minutes. Slides were washed in H2O and in PBS buffer for 5 minutes.
Slides were incubated in normal serum for 10 minutes from a kit (Zymed Laboratories, San Francisco, Calif.). For immunohistochemical staining, performed manually, slides were incubated with primary antibodies at previously determined optimal concentrations, for 60 minutes at room temperature, as summarized in Table 4, herein below.
Slides were washed in H2O and in PBS buffer for 5 minutes and further incubated for 10 minutes with a biothylated second antibody (Zymed Laboratories, San Francisco, Calif.), followed by PBS. […]

T47D cells = test: T47D and PBMC co-culture in vitro; format: cell-based, human
Description: Human ductal breast epithelial tumor cell line (T47D) was maintained in RPMI-1640 medium supplemented with 10% fetal calf serum.
as §1
T47D was maintained in RPMI+FCS 10%. 1 day before the start of the experiment, the medium was replaced with RPMI+AB human serum 10%. PBMCs (1×10^6) were added to T47D (0.1×10^6) at a final volume 1 ml into 24-well plates. The cells were treated with C24D (30 μg/ml) at 0, 24 and 48 hours. The cells without treatment were used as a control. Plates were washed, fixed for 1 hour with 4% formaldehyde solution and stained with Giemsa for microscopic evaluation on experimental days 1, 5, and 8.
After five days of primary culture with T47D and C24D, PBMCs (1 million) were added to fresh T47D (0.1 million) at a final volume 1 ml into 24-well plates. The cells were treated with C24D (30 μg/ml) at 0, 24 and 48 hours. After 4 days of culture, the cells were examined. […] The ratio between T47D and PBMCs was 1:10. Two days after incubation the cells were examined as illustrated in FIGS. 20A-B.

human macrophages = test: Binding to the surface of human macrophages (FITC-labelled antibody detection); format: cell-based; conditions: detected by mouse anti-C24D IgG-FITC and rabbit anti-C48 IgG-FITC
pregnancy development = conditions: vaccination of mice prior to mating; cited from earlier work

Substance | Binding to the surface of human T cells (HDMAR) (human T cells (HDMAR)) | Inhibition of the binding of C48 to T cells [1] | Level of INF-γ in the presence of C48 ([2]; 72 hours, together with C48) | Level of INF-γ ([2]; 72 hours) | Level of IL-10 when added together with C48 ([2]; culture together with C48) | Level of IL-10 [2] | MCF-7 cell monolayer lysis (Giemsa staining) ([3]; MCF7 incubated with PBMC for 5 days) | Lysis of MCF-7 cancer cells ([3]; MCF-7 and PBMC (1:10) cultured 8 days at 37° C., C24D 30 μg/ml) | Cytotoxic effect and growth inhibition of MCF-7 cells ([3]; MCF-7 cultured with human PBMC for 5-8 days) | Cytotoxicity of transferred PBMC on secondary untreated MCF-7 culture ([3]; PBMC removed from C24D-treated MCF-7+PBMC cultures) | Tumor growth ([4]; Nude mice transfused with human lymphocytes and engrafted with MCF-7, vs PBS) | Mean tumor volume ([4]; after 19 days, daily i.p. 60 μg, nude mice with MCF-7 and human PBMC) [mm^3] | Tumoral necrosis (histochemical analysis) ([4]; tumors removed from treated mice vs control) | T47D tumor cell lysis (T47D cells; 7 days of incubation with C24D and PBMCs) | Cytotoxicity on secondary T47D culture (T47D cells; PBMCs from 5-day primary culture added to fresh T47D, C24D 30 μg/ml, 4 days) | Lysis of T47D cancer cells (T47D cells; T47D and PBMC (1:10) cultured 5 days at 37° C.) | Binding to the surface of human macrophages (human macrophages) | Pregnancy development (pregnancy development)
C24-48M: monomeric synthetic polypeptide comprising the C48 terminal amino acids (aa) 24-48 (HHLLRPRRRKRPHSIPTPILIFRSP) [reference compound] | does not | – | – | – | – | – | – | – | – | – | – | – | – | – | – | – | – | –
C24D: covalently linked dimer of identical polypeptide chains, each SEQ ID NO: 1 plus N-terminal Cysteine and Glycine; SEQ ID NO: 102 (chain 1 CGHHLLRPRRRKRPHSIPTPILIFRSP; chain 2 CGHHLLRPRRRKRPHSIPTPILIFRSP; disulfide I:1-II:1) | bind similarly to the surface of human T cells; also recorded: binds to the surface of human T cells | inhibits the binding of C48 to T cells | increased significantly | increased significantly; also recorded: high levels of INF-γ | decreased the high level of IL-10 | did not increase the level of IL-10 | monolayer lysis | resulted in lysis of the cancer cells | cytotoxic effect and tumor cell growth inhibition | cytotoxic to the tumor cells | inhibited significantly the tumor growth; also recorded: tumor growth inhibition and cytotoxicity | 42.5±14 | Large areas of tumoral necrosis | An increase in tumor cell lysis | cytotoxic effect | resulted in lysis of the cancer cells | – | –
C48: subcloned recombinant C-terminal 48 amino acids of PLIF, its bioactive domain (SEQ ID NO: 100) (FPSPISPSPSCWHHYTTNRPQPQHHLLRPRRRKRPHSIPTPILIFRSP; Placental Immunoregulatory Ferritin (PLIF), C′, derived peptide C48) | bind similarly to the surface of human T cells | – | – | did not affect the INF-γ level; also recorded: no INF-γ | – | high level of IL-10; also recorded: high IL-10 levels | – | – | – | – | – | – | – | – | – | – | binds to the surface of human macrophages | prevented pregnancy development

— US10251943B2, “PLIF multimeric peptides and uses thereof” (Ramot at Tel-Aviv University Ltd., priority 2012, dated 2019)
